Series [1] concerns Rattus norvegicus. Description: Antidiabetic activity in streptozotocin-induced Albino Wistar rat diabetic model assessed as decrease in blood glucose level at 36 mg/kg, po measured after 15 days by glucose oxidase method. Type of series: functional, organism-based. The arrangement: dose 36 mg/kg.
Series [2] is filed under the species Rattus norvegicus. Description: Reduction in streptozotocin-induced aspartate aminotransferase level in Albino Wistar rat diabetic model. Type of series: functional, organism-based.
For series [3], the species on record is Rattus norvegicus. Description: Reduction in streptozotocin-induced alanine transaminase level in Albino Wistar rat diabetic model. Type of series: functional, organism-based.
For series [4], the species on record is Rattus norvegicus. The series is described as follows: Reduction in streptozotocin-induced alkaline phosphatase level in Albino Wistar rat diabetic model. Type of series: functional, organism-based.
For series [5], the species on record is Rattus norvegicus. The series is described as follows: Toxicity in streptozotocin-induced in Albino Wistar rat diabetic model assessed as liver damage by Haematoxylin/Eosin staining-based microscopy. Type of series: organism-based. The conditions noted are these: in vivo.
The species entered for series [6] is Rattus norvegicus. Description: Hepatotoxicity in streptozotocin-induced in Albino Wistar rat diabetic model assessed increase in sinusoidal dilatation by Haematoxylin/Eosin staining-based microscopy. Conditions: in vivo. It is filed as toxicity, organism-based.
The species named for series [7] is Rattus norvegicus. Description: Hepatotoxicity in streptozotocin-induced in Albino Wistar rat diabetic model assessed increase in portal triad Inflammation by Haematoxylin/Eosin staining-based microscopy. The conditions noted are these: in vivo. It is filed as toxicity, organism-based.
The species entered for series [8] is Rattus norvegicus. Description: Hepatotoxicity in streptozotocin-induced in Albino Wistar rat diabetic model assessed as fatty changes in hepatocyte by Haematoxylin/Eosin staining-based microscopy. Type of series: toxicity, organism-based. The conditions noted are these: hepatocytes.
The species entered for series [9] is Rattus norvegicus. Description: Hepatotoxicity in streptozotocin-induced in Albino Wistar rat diabetic model assessed as hepatocyte swelling by Haematoxylin/Eosin staining-based microscopy. It is filed as toxicity, organism-based. Conditions: hepatocytes.
The species entered for series [10] is Rattus norvegicus. The series is described as follows: Antidiabetic activity in Albino Wistar rat assessed as reduction of blood glucose level measured at 120 mins after glucose injection by oral glucose tolerance test. Type of series: functional, organism-based.
For series [11], the species on record is Rattus norvegicus. The series is described as follows: Antidiabetic activity in Albino Wistar rat assessed as improvement in insulin resistance measured at 90 mins after insulin injection by insulin tolerance test. Type of series: functional, organism-based.
The species named for series [12] is Rattus norvegicus. The series is described as follows: Toxicity in Albino Wistar rat assessed as change in body weight relative to control. Type of series: organism-based. The conditions noted are these: in vivo.
The subject of series [13] is Rattus norvegicus. Description: Antidiabetic activity in streptozotocin-induced Albino Wistar rat diabetic model assessed as improvement in body weight at 36 mg/kg, po measured after 15 days by glucose oxidase method. More on the design: dose 36 mg/kg. It is filed as functional, organism-based.

Each structure is given as a SMILES string. The source made the active and inactive calls. The rule behind the calls is not given here.

Take `COc1cccc2c1C(=O)C(CC1SC(=O)NC1=O)CO2` (stereo unspecified): the inhibition entry in the series with Rattus norvegicus [1] was “Active”.

Consider `O=C1NC(=O)C(Cc2coc3ccc(Br)cc3c2=O)S1` (stereo unspecified), for which the inhibition result in the series with Rattus norvegicus [1] was “Active”. For the same compound, the outcome in the series listed under Rattus norvegicus [2], in the series listed under Rattus norvegicus [3] and in the series filed under Rattus norvegicus [4] was Active. Besides, the Activity entry was “Toxic” in the series listed under Rattus norvegicus [5]; “Toxic” in the series listed under Rattus norvegicus [6]; “Non-toxic” in the series filed under Rattus norvegicus [7]; “Non-toxic” in the series listed under Rattus norvegicus [8]; “Non-toxic” in the series filed under Rattus norvegicus [9].

Take `COc1ccc2occ(CC3SC(=O)NC3=O)c(=O)c2c1` (stereo unspecified): the inhibition entry in the series on Rattus norvegicus [1] is “Active”. For the same compound, the outcome in the series listed under Rattus norvegicus [2], in the series filed under Rattus norvegicus [3] and in the series listed under Rattus norvegicus [4] was Active. The Activity result in the series listed under Rattus norvegicus [5], in the series listed under Rattus norvegicus [6], in the series filed under Rattus norvegicus [7], in the series listed under Rattus norvegicus [8] and in the series listed under Rattus norvegicus [9] was “Non-toxic” each time.

Regarding `COc1ccc2c(c1)C(=O)C(CC1SC(=O)NC1=O)CO2` (stereo unspecified), the inhibition entry in the series with Rattus norvegicus [1] was “Active”.

For `O=C1NC(=O)C(Cc2coc3ccccc3c2=O)S1` (stereo unspecified), in the series on Rattus norvegicus [1], the inhibition result is “Active”.

On to `Cc1ccc2c(c1)C(=O)C(CC1SC(=O)NC1=O)CO2` (stereo unspecified), for which, in the series on Rattus norvegicus [1], the inhibition entry was “Active”.

On to `Cc1ccc2occ(CC3SC(=O)NC3=O)c(=O)c2c1` (stereo unspecified), for which, in the series with Rattus norvegicus [1], the inhibition entry was “Active”.

Turning to `O=C1NC(=O)C(Cc2coc3ccc(Cl)cc3c2=O)S1` (stereo unspecified), the inhibition result with Rattus norvegicus [1] and in the series listed under Rattus norvegicus [10] was “Active” in each case. The result in the series listed under Rattus norvegicus [11], with Rattus norvegicus [13], in the series listed under Rattus norvegicus [2], in the series listed under Rattus norvegicus [3] and in the series filed under Rattus norvegicus [4] was Active. For the same compound, the Activity result in the series filed under Rattus norvegicus [12], in the series listed under Rattus norvegicus [5], in the series filed under Rattus norvegicus [6], in the series filed under Rattus norvegicus [7], in the series filed under Rattus norvegicus [8] and in the series listed under Rattus norvegicus [9] was “Non-toxic” throughout.

`O=C1NC(=O)C(CC2COc3ccc(F)cc3C2=O)S1` (stereo unspecified): the inhibition entry with Rattus norvegicus [1] was “Active”.

With `O=C1NC(=O)C(Cc2coc3c(Cl)cc(Cl)cc3c2=O)S1` (stereo unspecified), the inhibition entry with Rattus norvegicus [1] is “Active”. Further, the outcome in the series filed under Rattus norvegicus [2], in the series filed under Rattus norvegicus [3] and in the series filed under Rattus norvegicus [4] was Active. Also, the Activity result in the series filed under Rattus norvegicus [5] is recorded as “Toxic”; in the series filed under Rattus norvegicus [6], “Toxic”; in the series filed under Rattus norvegicus [7], “Non-toxic”; in the series filed under Rattus norvegicus [8] it was “Non-toxic”; in the series listed under Rattus norvegicus [9], “Non-toxic”.

For the compound `O=C1NC(=O)C(CC2COc3ccc(Br)cc3C2=O)S1` (stereo unspecified), the inhibition entry in the series on Rattus norvegicus [1] was “Active”.

In the case of `CCc1ccc(CCOc2ccc(CC3SC(=O)NC3=O)cc2)nc1` (stereo unspecified) [PIOGLITAZONE], the Activity result is “Toxic” in the series listed under Rattus norvegicus [6], “Non-toxic” in the series filed under Rattus norvegicus [7], “Non-toxic” in the series filed under Rattus norvegicus [8] and “Non-toxic” in the series filed under Rattus norvegicus [9].

As for `O=C1NC(=O)C(CC2COc3c(Cl)cc(Cl)cc3C2=O)S1` (stereo unspecified), the inhibition entry in the series with Rattus norvegicus [1] was “Active”.

Take `O=C1NC(=O)C(Cc2coc3ccc(F)cc3c2=O)S1` (stereo unspecified): the inhibition entry in the series on Rattus norvegicus [1] is “Active”. Also, the outcome in the series filed under Rattus norvegicus [2], in the series listed under Rattus norvegicus [3] and in the series listed under Rattus norvegicus [4] was Active. Further, the Activity entry in the series listed under Rattus norvegicus [5] is listed as “Toxic”; in the series filed under Rattus norvegicus [6] it was “Toxic”; in the series listed under Rattus norvegicus [7], “Non-toxic”; in the series listed under Rattus norvegicus [8], “Non-toxic”; in the series listed under Rattus norvegicus [9], “Non-toxic”.

Source of the values: ChEMBL document CHEMBL3297740, “Thiazolidine-2,4-diones derivatives as PPAR-γ agonists: synthesis, molecular docking, in vitro and in vivo antidiabetic activity with hepatotoxicity risk evaluation and effect on PPAR-γ gene expression” (Bioorg Med Chem Lett, 2014).
